From patent US20120270771A1, “APOLIPOPROTEIN A-1 MIMIC PEPTIDES, AND THERAPEUTIC AGENT FOR TREATING HYPERLIPIDEMIA AND DISEASES RELATED TO HYPERLIPIDEMIA COMPRISING SAME” (SNU R&DB FOUNDATION, priority 2009, published 2012)
Square brackets hold non-standard residues; d marks the D form. 2Nal = N[C@@H](Cc1ccc2ccccc2c1)C(=O)O

Tests used:
[1] = tryptophan fluorescence measurement of peptide with or without liposome (LUV); format: binding; conditions: for dependence of tryptophan fluorescence intensity on the relative amount of cholesterol in the liposome: LUVs containing cholesterol at 0%, 10%, 20%, 30% and 40%, FIG. 5; for tryptophan fluorescence intensity measured under LUV condition (ratio with or without liposome): 1 μM peptide, liposome 0.1 mg/ml; for tryptophan fluorescence intensity measured under LUV condition (ratio with or without liposome) / increase in fluorescence intensity in the lipid environment when compared to in aqueous solution: FIG. 4; for increase in fluorescence intensity in the lipid environment when compared to in aqueous solution: tryptophan fluorescence
Description: Total 10 mg of lipid compound was prepared by mixing phosphatidylcholine (soybean) and the LUVs containing cholesterol at 0%, 10%, 20%, 30% and 40%. The lipid compound was dissolved in 2 mL of solution containing 2:1 volumes of chloroform and methanol. The solvent is removed by using distillation condensation device and yielding a thin lipid film in the flask. The lipid film is hydrated by adding 1 mL of tertiary distilled water. Liposomes of the same size were generated by extruding the solution through a […] filter for 5 times, and 0.1 μm polycarbonate filter for 5 times using a cylinder fitted with a high pressure regulator. The amount of cholesterol contained in the liposome was measured by using cholesterol Lab-assay kit.
Fluorescence Anisotropy was measured using AMINCO-Bowman Series Luminescence Spectrometer at 20° C. For the buffer system, 10 mM HEPES (N-2-Hydroxyethylpiperazine-N′-2-Ethanesulfonic Acid, pH 7.4) containing 140 mM NaCl, 1 mM EDTA (ethylenediaminetetraacetic acid) was used. The concentration of the peptide was 500 μM and was kept at 0° C. The fluorescence emission spectrum was monitored by adding […] of peptide with 499 μl buffer solution to a final concentration of 1 μM. Liposome was added to the above buffer and peptide mixture solution to the final concentration of 0.1 mg/ml. The ratio of the intensity was calculated by measuring the spectrum in the condition of with or without liposome.

macrophage cell line = experiment: cholesterol efflux assay in macrophage cells loaded with 3H-labeled cholesterol; format: cell-based, Human; conditions: 20 μM peptide, 4 hr incubation
Description: The present inventors determined the calculated mass value of the Apo A-I mimic peptide and the actual mass value of the A-1 mimic peptide acquired following the synthesis and purification step (see Table 1). In addition, cholesterol efflux was analyzed to screen the peptides. Human macrophage cells were treated with ^3H radioisotope labeled cholesterol. Next, the cells were treated with each of the peptide prepared from above. The amount of high density lipoprotein (HDL) produced was analyzed by measuring the amount of intracellular cholesterol and extracellular cholesterol released from the macrophage. […] There was a significant increase in cholesterol efflux when phenylalanine was substituted with tryptophan or naphthylalanine (see FIG. 3).
In order to screen which of the peptide synthesized from Example 1 mimics the Apo A-I, cholesterol efflux assay was performed by treating the macrophage cell line with the peptides. In particular, DMEM (Dulbecco's Modified Eagle medium) containing penicillin-streptomycin and 10% FBS (Fetal Bovine Serum) was used as the cell culture medium. […] The culture medium and the cells were separated to measure the radioactivity using Liquid Scintillation Counter. The level of cholesterol efflux was determined by measuring the ratio of isotope labeled cholesterol remained in the cell and in the cell culture medium, respectively.

## Ac-DWFAKDYFKKAFVEEFAK (Ac-DWFAKDYFKKAFVEEFAK-NH2) [Sc-4F, negative control group of 4F, reference compound]
[1]
  dependence of tryptophan fluorescence intensity on the relative amount of cholesterol in the liposome: irrelevant to the concentration of cholesterol

## Ac-DWFKAFYDKVAEKFKEAF (Ac-DWFKAFYDKVAEKFKEAF-NH2) [4F, existing Apo A-I mimic peptide, first generation amphiphilic alpha helix peptide containing 4 phenylalanine, reference compound]
[1]
  tryptophan fluorescence intensity measured under LUV condition (ratio with or without liposome): about 1.9
  dependence of tryptophan fluorescence intensity on the relative amount of cholesterol in the liposome: irrelevant to the concentration of cholesterol

## Ac-EWFKAFYDKVAEKFKEAF (Ac-EWFKAFYDKVAEKFKEAF-NH2) [1a]
[1]
  tryptophan fluorescence intensity measured under LUV condition (ratio with or without liposome): ~2.1
  increase in fluorescence intensity in the lipid environment when compared to in aqueous solution: about 2.1 fold

## Ac-EWNal2KAFYDKVAEKFKEANal2 (Ac-EW[2Nal]KAFYDKVAEKFKEA[2Nal]-NH2; SMILES CC(=O)N[C@@H](CCC(=O)O)C(=O)N[C@@H](Cc1c[nH]c2ccccc12)C(=O)N[C@@H](Cc1ccc2ccccc2c1)C(=O)N[C@@H](CCCCN)C(=O)N[C@@H](C)C(=O)N[C@@H](Cc1ccccc1)C(=O)N[C@@H](Cc1ccc(O)cc1)C(=O)N[C@@H](CC(=O)O)C(=O)N[C@@H](CCCCN)C(=O)N[C@H](C(=O)N[C@@H](C)C(=O)N[C@@H](CCC(=O)O)C(=O)N[C@@H](CCCCN)C(=O)N[C@@H](Cc1ccccc1)C(=O)N[C@@H](CCCCN)C(=O)N[C@@H](CCC(=O)O)C(=O)N[C@@H](C)C(=O)N[C@@H](Cc1ccc2ccccc2c1)C(N)=O)C(C)C) [2s]
Macrophage cell line
  increase in cholesterol efflux when compared to peptide 4F: about 300%
[1]
  tryptophan fluorescence intensity measured under LUV condition (ratio with or without liposome): about 4.3
  dependence of tryptophan fluorescence intensity on the relative amount of cholesterol in the liposome: significant increase of fluorescence intensity according to the increased concentration of the cholesterol inside the liposome
  increase in fluorescence intensity in the lipid environment when compared to in aqueous solution: about 4.30 fold
